The assay deals with T1, IRAK4 (Homo sapiens, UniProt Q9NWZ3).
T1 sequence (Q9NWZ3 1-460): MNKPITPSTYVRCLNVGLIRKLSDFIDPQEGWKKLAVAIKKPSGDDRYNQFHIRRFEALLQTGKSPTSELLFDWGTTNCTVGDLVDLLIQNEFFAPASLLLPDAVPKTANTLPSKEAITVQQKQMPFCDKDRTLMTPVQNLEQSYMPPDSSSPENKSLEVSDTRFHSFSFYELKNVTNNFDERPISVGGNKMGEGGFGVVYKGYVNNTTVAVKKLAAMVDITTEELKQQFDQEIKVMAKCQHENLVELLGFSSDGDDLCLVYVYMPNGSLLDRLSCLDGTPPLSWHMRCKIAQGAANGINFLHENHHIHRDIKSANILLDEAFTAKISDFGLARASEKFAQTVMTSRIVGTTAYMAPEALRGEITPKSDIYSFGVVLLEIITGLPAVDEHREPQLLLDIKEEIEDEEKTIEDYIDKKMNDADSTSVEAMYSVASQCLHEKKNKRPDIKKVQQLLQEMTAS
Briefly: IRAK-4 activity inhibition assay (Caliper). The format is biochemical. The conditions noted are these: 37 μM ATP, 3.5 nM IRAK4.
One may read the IC50 as the concentration that gives 50% inhibition. A higher IC50 goes with lower potency. As for `CNC1CCC(Oc2ncnc3sc4c(c23)[C@@H](C[C@H](N)C(N)=O)CC4)CC1` (stereo partly drawn) [Compound I-146, (2S)-2-amino-3-[(3R)-12-[[4-(methylamino)cyclohexyl]oxy]-7-thia-9,11-diazatricyclo[6.4.0.0[2,6]]dodeca-1(8),2(6),9,11-tetraen-3-yl]propanamide], the IC50 is below 5 µM.

The compound `NC(=O)[C@H](O)C[C@H]1CCc2sc3ncnc(O[C@H]4CC[C@H](N5CCCCC5)CC4)c3c21` [Compound I-218, (R)-2-hydroxy-3-((R)-4-(((1r,4R)-4-(piperidin-1-yl)cyclohexyl)oxy)-6,7-dihydro-5H-cyclopenta[4,5]thieno[2,3-d]pyrimidin-5-yl)propanamide] came in with an IC50 below 5 µM. For `C=C[C@H](O)C[C@H]1CCc2sc3ncnc(O[C@H]4CC[C@](CC)(N(C)C)CC4)c3c21` [Compound I-124, (R)-1-((R)-4-(((1r,4R)-4-(dimethylamino)-4-ethylcyclohexyl)oxy)-6,7-dihydro-5H-cyclopenta[4,5]thieno[2,3-d]pyrimidin-5-yl)but-3-en-2-ol] the value was 5 to 20 µM; for `CN(C)[C@H]1CC[C@H](Oc2ncnc3sc4c(c23)CN(S(=O)(=O)CCO)CC4)CC1` [Compound I-209, 2-(3-[[4-(dimethylamino)cyclohexyl]oxy]-8-thia-4,6, 12-triazatricyclo[7.4.0.0[2,7]]trideca-1(9),2,4,6-tetraene-12-sulfonyl)ethan-1-ol], below 5 µM; for `CC[C@@H](C[C@H]1CCc2sc3ncnc(N[C@H]4CC[C@H](N(C)C)CC4)c3c21)OC` [Compound I-148, (1r,4R)-N1-((R)-5-((S)-2-methoxybutyl)-6,7-dihydro-5H-cyclopenta[4,5]thieno[2,3-d]pyrimidin-4-yl)-N4,N4-dimethylcyclohexane-1,4-diamine], below 5 µM.

`CO[C@@H](C[C@H]1CCc2sc3ncnc(O[C@H]4CC[C@H](N(C)C)CC4)c3c21)C(N)=O` [Compound I-78, (2S)-3-[(3R)-12-[[4-(dimethylamino)cyclohexyl]oxy]-7-thia-9,11-diazatricyclo[6.4.0.0[2,6]]dodeca-1(8),2(6),9,11-tetraen-3-yl]-2-methoxypropanamide] displayed an IC50 below 5 µM.

Regarding `CCSCC1CCc2sc3ncnc(O[C@H]4CC[C@H](N(C)C)CC4)c3c21` (stereo partly drawn) [Compound I-39, 4-([3-[(ethylsulfanyl)methyl]-7-thia-9,11-diazatricyclo[6.4.0.0[2,6]]dodeca-1(12),2(6),8,10-tetraen-12-yl]oxy)-N,N-dimethylcyclohexan-1-amine], the IC50 is below 5 µM.

`CN(C)[C@H]1CC[C@H](Nc2ncnc3sc4c(c23)C(CC(=O)O)CC4)CC1` (stereo partly drawn) [Compound I-18] yielded an IC50 of 5 to 20 µM. In the case of `CC(=O)N1CCc2sc3ncnc(O[C@H]4CC[C@H](N(C)C)CC4)c3c2C1` [Compound I-167] it was below 5 µM; in that of `NC(=O)[C@@H]1CCc2sc3ncnc(N[C@H]4CC[C@H](N5CCOCC5)CC4)c3c2C1` [Compound I-208, (12R)-3-[[4-(morpholin-4-yl)cyclohexyl]amino]-8-thia-4,6-diazatricyclo[7.4.0.0[2,7]]trideca-1(9),2(7),3,5-tetraene-12-carboxamide], below 5 µM. `CN(CCO)C(=O)CC1CCc2sc3ncnc(N[C@H]4CC[C@H](N(C)C)CC4)c3c21` (stereo partly drawn) [Compound I-30, 2-(12-[[4-(dimethylamino)cyclohexyl]amino]-7-thia-9,11-diazatricyclo[6.4.0.0̂[2,6]]dodeca-1(8),2(6),9,11-tetraen-3-yl)-N-(2-hydroxyethyl)-N-methylacetamide] registered an IC50 of 20 to 50 µM.

As for `C[C@@H](O)C[C@H]1CCc2sc3ncnc(O[C@H]4CC[C@H](N5CCOCC5)CC4)c3c21` [Compound I-82, (R)-1-((R)-4-(((1r,4R)-4-morpholinocyclohexyl)oxy)-6,7-dihydro-5H-cyclopenta[4,5]thieno[2,3-d]pyrimidin-5-yl)propan-2-ol], the IC50 was below 5 µM. For `CN(C)[C@]1(C)CC[C@@H](Oc2ncnc3sc4c(c23)[C@@H](CC(N)=O)CC4)CC1` [Compound I-155, 2-[(3R)-12-[[4-(dimethylamino)-4-methylcyclohexyl]oxy]-7-thia-9,11-diazatricyclo[6.4.0.0[2,6]]dodeca-1(8),2(6),9,11-tetraen-3-yl]acetamide] the value was below 5 µM; for `CN[C@H]1CC[C@H](Oc2ncnc3sc4c(c23)[C@@H](CCC(N)=O)CCC4)CC1` [Compound I-162, 3-((R)-4-(((1r,4R)-4-(methylamino)cyclohexyl)oxy)-5,6,7,8-tetrahydrobenzo[4,5]thieno[2,3-d]pyrimidin-5-yl)propanamide], below 5 µM; for `CN(C)[C@H]1CC[C@H](Nc2ncnc3sc4c(c23)C(C(=O)NCc2cccnc2)CC4)CC1` (stereo partly drawn) [Compound I-25, 12-[[4-(dimethylamino)cyclohexyl]amino]-N-(pyridin-3-ylmethyl)-7-thia-9,11-diazatricyclo[6.4.0.0̂[2,6]]dodeca-1(12),2(6),8,10-tetraene-3-carboxamide], 20 to 50 µM. In the case of `CN(C)[C@H]1CC[C@H](Oc2ncnc3sc4c(c23)[C@@H](CC(=O)Nc2ccc(F)cn2)CC4)CC1` [Compound I-37, 2-[(3R)-12-[[4-(dimethylamino)cyclohexyl]oxy]-7-thia-9,11-diazatricyclo[6.4.0.0[2,6]]-dodeca-1(8),2(6),9,11-tetraen-3-yl]-N-(5-fluoropyridin-2-yl)acetamide] it was below 5 µM; in that of `CN(CC(=O)N1CCCC1)[C@H]1CC[C@H](Nc2ncnc3sc4c(c23)[C@@H](CCO)CC4)CC1` [Compound I-116, 2-(((1R,4r)-4-(((R)-5-(2-hydroxyethyl)-6,7-dihydro-5H-cyclopenta[4,5]thieno[2,3-d]pyrimidin-4-yl)amino)cyclohexyl)(methyl)amino)-1-(pyrrolidin-1-yl)ethanone], below 5 µM; in that of `CN(C)[C@H]1CC[C@H](Oc2ncnc3sc4c(c23)[C@@H](CCc2ncco2)CC4)CC1` [Compound I-63, N,N-dimethyl-4-[[(3S)-3-[2-(1,3-oxazol-2-yl)ethyl]-7-thia-9,11-diazatricyclo[6.4.0.0[2,6]]dodeca-1(8),2(6),9,11-tetraen-12-yl]oxy]cyclohexan-1-amine], below 5 µM. `CN(C)[C@H]1CC[C@H](Oc2nc(Nc3ccc(N4CCNCC4)cc3)nc3sc4c(c23)C(CC(N)=O)CC4)CC1` (mixture of isomers) [Compound I-205, 2-(12-[[4-(dimethylamino)cyclohexyl]oxy]-10-[[4-(piperazin-1-yl)phenyl]amino]-7-thia-9, 11-diazatricyclo[6.4.0.0[2,6]]dodeca-1(12),2(6),8, 10-tetraen-3-yl)acetamide] registered an IC50 below 5 µM. In the case of `CN(C)[C@H]1CC[C@H](Nc2ncnc3sc4c(c23)C(CN2CCCC2)CC4)CC1` (stereo partly drawn) [Compound I-10, (1r,4r)-N1,N1-dimethyl-N4-(5-(pyrrolidin-1-ylmethyl)-6,7-dihydro-5H-cyclopenta[4,5]thieno[2,3-d]pyrimidin-4-yl)cyclohexane-1,4-diamine] it was 20 to 50 µM. For `CC[C@@H](O)C[C@H]1CCc2sc3ncnc(N[C@H]4CC[C@H](N(C)C)CC4)c3c21` [Compound I-52] the value was below 5 µM.

Source of the values: US20160193216A1 (Nimbus Iris, Inc., priority 2012, published 2016).
